Laboratory results as given in patent publication US20250313546A1, “NUCLEIC ACID BINDERS” (UNIVERSITY OF STRATHCLYDE, priority 2022, published 2025).
In brackets after ≈: the same amount, converted by molar mass. Like-named read-outs stand apart in the source and are kept apart here.

Columns and labels:
[1] = test system: C. guilliiermondii; assay: Expanded set of yeasts, MIC broth microdilution (CLSI); assay type: cell-based; conditions: MIC at 50% inhibition; for MIC50: isolate Cgui1
[2] = test system: Rhizopus arrhizus (NEQAS12.35321); conditions: read-out: MIC99 Rhizopus arrhizus
Procedure: (§2) The Minimum Inhibitory Concentration (MIC, at 99% inhibition) of the compounds was determined using the broth microdilution method as recommended by EUCAST (EUCAST Definitive Document E.DEF 9.3.2, Method for the determination of broth dilution minimum inhibitory concentrations of antifungal agents for conidia forming moulds and EUCAST Definitive Document E.DEF 7.3.2 Method for the determination of broth dilution minimum inhibitory concentrations of antifungal agents for yeasts).

[3] = test system: Candida auris (H.17.157); conditions: Candidozyma auris, read-out: MIC99 Candida auris
[4] = test system: C. albicans; assay: Expanded set of yeasts, MIC broth microdilution (CLSI); assay type: cell-based; conditions: MIC at 50% inhibition; for MIC50: Candida albicans; for MIC50 C. albicans: isolate CA90028
[5] = test system: Staphylococcus aureus (ATCC 43300); assay: Antibacterial MIC, broth microdilution (CLSI); assay type: cell-based; conditions: for S. aureus Selectivity Indices, Group: SI, IC50 (μM)/MIC80 (μM), HEK293 cytotoxicity, Alkyl Amidines and NH Pyrroles; for MIC80: Staphylococcus aureus, ATCC43300, read-out: MIC80 S. aureus
[6] = test system: C. neoformans (F10025); conditions: Cryptococcus neoformans, read-out: MIC99 C. neoformans
Procedure: as §2

[7] = test system: PolyAU double stranded RNA; assay: Fluorescence intercalator displacement (FID) assay, SYBR-safe probe; conditions: 20 μM compound, 30° C., lower % = stronger binding
How it was run: (§1)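 Compound at 20 μM mixed with 3.76 ng/mL polyAU dsRNA or salmon genomic dsDNA and 12500-fold diluted SybrSafe in 1 mM phosphate buffer pH 7.4, then heated to 30 °C and fluorescence read. Reduction is expressed as normalised %, with nucleic acid plus probe as maximum and probe alone as minimum.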

[8] = test system: Genomic double stranded DNA (salmon); assay: as above; conditions: 20 μM compound, 30° C., lower % = stronger binding
How it was run: as §1

[9] = test system: Scedosporium prolificans (F2746); conditions: Lomentospora prolificans, read-out: MIC99 Scedosporium prolificans
Procedure: as §2

[10] = test system: Blastomyces dermatitidis; assay: Expanded set of filamentous fungi, MIC broth microdilution (CLSI); assay type: cell-based
[11] = test system: Fusarium solani; assay: as above; assay type: cell-based; conditions: MIC at 50% inhibition; for MIC50: Fusarium solani, isolate F4; for MIC50 Fusarium solani: isolate DI19-284
[12] = test system: Scedosporium spp.; assay: as above; assay type: cell-based
[13] = test system: Paecilomyces variotii; assay: as above; assay type: cell-based; conditions: isolate MYA-3630, MIC at 50% inhibition
[14] = test system: Enterococcus faecalis (ATCC 51299); assay: Antibacterial MIC, broth microdilution (CLSI); assay type: cell-based; conditions: Enterococcus faecalis, ATCC51299; read-out: MIC80 E. faecalis
[15] = test system: Candida glabrata (ACPF3309); conditions: Nakaseomyces glabratus, read-out: MIC99 Candida glabrata
[16] = test system: Fusarium oxysporum; assay: Expanded set of filamentous fungi, MIC broth microdilution (CLSI); assay type: cell-based; conditions: MIC at 50% inhibition; for MIC50: Fusarium oxysporum, isolate F2; for MIC50 Fusarium oxysporum: isolate F3
[17] = test system: Fusarium oxysporum (F7098); conditions: read-out: MIC99 Fusarium oxysporum
Procedure: as §2

[18] = test system: Lomentospora prolificans; assay: Expanded set of filamentous fungi, MIC broth microdilution (CLSI); assay type: cell-based; conditions: isolate S2, MIC at 50% inhibition
[19] = test system: Aspergillus fumigatus; assay: as above; assay type: cell-based
[20] = test system: Escherichia coli (ATCC 25922); assay: Antibacterial MIC, broth microdilution (CLSI); assay type: cell-based; conditions: Escherichia coli, ATCC25922; read-out: MIC80 E. coli
[21] = test system: Candida parapsilosis; assay: Expanded set of yeasts, MIC broth microdilution (CLSI); assay type: cell-based; conditions: MIC at 50% inhibition; for MIC50: Lodderomyces parapsilosis
[22] = test system: Rhizopus arrhizus; assay: Expanded set of filamentous fungi, MIC broth microdilution (CLSI); assay type: cell-based
[23] = isolate BD1, MIC at 50% inhibition
[24] = isolate BD2, MIC at 50% inhibition
[25] = isolate BD3, MIC at 50% inhibition
[26] = isolate S1, MIC at 50% inhibition
[27] = isolate S3, MIC at 50% inhibition
[28] = isolate AF293, MIC at 50% inhibition
[29] = isolate DI15-106, MIC at 50% inhibition
[30] = isolate DI15-116, MIC at 50% inhibition
[31] = isolate DI19-187, MIC at 50% inhibition
[32] = isolate DI19-230, MIC at 50% inhibition
[33] = isolate DI19-231, MIC at 50% inhibition
[34] = isolate DI19-232, MIC at 50% inhibition
[35] = isolate DI19-233, MIC at 50% inhibition
[36] = isolate DI19-234, MIC at 50% inhibition
[37] = isolate DI19-236, MIC at 50% inhibition
[38] = isolate DI19-237, MIC at 50% inhibition
[39] = isolate DI20-95, MIC at 50% inhibition
[40] = isolate DI20-103, MIC at 50% inhibition
[41] = ATCC22019, isolate ATCC 22019, read-out: MIC50 Candida parapsilosis
[42] = isolate CP1, read-out: MIC50 C. parapsilosis
[43] = isolate 99-880, MIC at 50% inhibition
[44] = isolate 99-892, MIC at 50% inhibition
[45] = isolate RA3, MIC at 50% inhibition

## [H]/N=C(\CCNC(=O)c1cc(NC(=O)c2cc(NC(=O)c3ccc(C=Cc4ccc(N(C)C)cc4)nc3)cn2C)cn1C)NC [Ia9, (E)-6-(4-(dimethylamino)styryl)-N-(5-((5-((3-imino-3-(methylamino)propyl)carbamoyl)-1-methyl-1H-pyrrol-3-yl)carbamoyl)-1-methyl-1H-pyrrol-3-yl)nicotinamide]
[1]
  MIC50: 1 to 8 µg/mL (≈ 1.68 to 13.4 µM)
[1]; isolate Cgui2
  MIC50 C. guilliiermondii: ** (** means 1 μg/mL < MIC50 <= 8 μg/mL)
[1]; isolate Cgui3
  MIC50 C. guilliiermondii: ** (** means 1 μg/mL < MIC50 <= 8 μg/mL)
[2]
  MIC99: 5 to 25 µg/mL (≈ 8.39 to 42 µM)
[3]
  MIC99: > 50 µg/mL
[4]; isolate CA3
  MIC50: 1 to 8 µg/mL (≈ 1.68 to 13.4 µM)
[4]; isolate SC5314
  MIC50: 1 to 8 µg/mL (≈ 1.68 to 13.4 µM)
[4]
  MIC50 C. albicans: ** (** means 1 μg/mL < MIC50 <= 8 μg/mL)
[5]
  S. aureus Selectivity Indices, Group: C (Group C: 5 < SI <= 10)
  MIC80: 5 to 25 µM (≈ 2.98 to 14.9 µg/mL)
[6]
  MIC99: < 5 µg/mL
[7]
  % Normalised Fluorescence with polyAU RNA: 19%
[8]
  % Normalised Fluorescence with gDNA: 13%
[9]
  MIC99: 5 to 25 µg/mL (≈ 8.39 to 42 µM)
[10]; [23]
  MIC50: 1 to 8 µg/mL (≈ 1.68 to 13.4 µM)
[10]; [24]
  MIC50: 1 to 8 µg/mL (≈ 1.68 to 13.4 µM)
[10]; [25]
  MIC50: 1 to 8 µg/mL (≈ 1.68 to 13.4 µM)
[11]
  MIC50: ≤ 1 µg/mL
  MIC50 Fusarium solani: *** (*** means MIC50 <= 1 μg/mL)
[12]; [26]
  MIC50: 1 to 8 µg/mL (≈ 1.68 to 13.4 µM)
[12]; [27]
  MIC50: ≤ 1 µg/mL
[13]
  MIC50: 1 to 8 µg/mL (≈ 1.68 to 13.4 µM)
[14]
  MIC80: 25 to 100 µM (≈ 14.9 to 59.6 µg/mL)
[15]
  MIC99: 5 to 25 µg/mL (≈ 8.39 to 42 µM)
[16]
  MIC50: ≤ 1 µg/mL
  MIC50 Fusarium oxysporum: *** (*** means MIC50 <= 1 μg/mL)
[17]
  MIC99: < 5 µg/mL
[18]
  MIC50: ≤ 1 µg/mL
[19]; [28]
  MIC50: 1 to 8 µg/mL (≈ 1.68 to 13.4 µM)
[19]; [29]
  MIC50: 1 to 8 µg/mL (≈ 1.68 to 13.4 µM)
[19]; [30]
  MIC50: 1 to 8 µg/mL (≈ 1.68 to 13.4 µM)
[19]; [31]
  MIC50: 1 to 8 µg/mL (≈ 1.68 to 13.4 µM)
[19]; [32]
  MIC50: 1 to 8 µg/mL (≈ 1.68 to 13.4 µM)
[19]; [33]
  MIC50: 1 to 8 µg/mL (≈ 1.68 to 13.4 µM)
[19]; [34]
  MIC50: 1 to 8 µg/mL (≈ 1.68 to 13.4 µM)
[19]; [35]
  MIC50: 1 to 8 µg/mL (≈ 1.68 to 13.4 µM)
[19]; [36]
  MIC50: 1 to 8 µg/mL (≈ 1.68 to 13.4 µM)
[19]; [37]
  MIC50: 1 to 8 µg/mL (≈ 1.68 to 13.4 µM)
[19]; [38]
  MIC50: 1 to 8 µg/mL (≈ 1.68 to 13.4 µM)
[19]; [39]
  MIC50: 1 to 8 µg/mL (≈ 1.68 to 13.4 µM)
[19]; [40]
  MIC50: 1 to 8 µg/mL (≈ 1.68 to 13.4 µM)
[20]
  MIC80: > 100 µM
[21]; [41]
  MIC50: 1 to 8 µg/mL (≈ 1.68 to 13.4 µM)
[21]; [42]
  MIC50: 1 to 8 µg/mL (≈ 1.68 to 13.4 µM)
[21]; isolate CP2
  MIC50 C. parapsilosis: ** (** means 1 μg/mL < MIC50 <= 8 μg/mL)
[21]; isolate CP3
  MIC50 C. parapsilosis: ** (** means 1 μg/mL < MIC50 <= 8 μg/mL)
[22]; [43]
  MIC50: 1 to 8 µg/mL (≈ 1.68 to 13.4 µM)
[22]; [44]
  MIC50: 1 to 8 µg/mL (≈ 1.68 to 13.4 µM)
[22]; [45]
  MIC50: 1 to 8 µg/mL (≈ 1.68 to 13.4 µM)

## C/N=C(/CCNC(=O)c1cc(NC(=O)c2cc(NC(=O)c3ccc(/C=C/c4cnc5ccccc5c4)cc3)cn2C)cn1C)NC [Ia10, 1-methyl-4-(1-methyl-4-(4-((E)-2-(quinolin-3-yl)vinyl)benzamido)-1H-pyrrole-2-carboxamido)-N—((Z)-3-(methylamino)-3-(methylimino)propyl)-1H-pyrrole-2-carboxamide]
[1]
  MIC50: 1 to 8 µg/mL (≈ 1.62 to 13 µM)
[1]; isolate Cgui2
  MIC50 C. guilliiermondii: ** (** means 1 μg/mL < MIC50 <= 8 μg/mL)
[1]; isolate Cgui3
  MIC50 C. guilliiermondii: ** (** means 1 μg/mL < MIC50 <= 8 μg/mL)
[2]
  MIC99: 5 to 25 µg/mL (≈ 8.11 to 40.5 µM)
[3]
  MIC99: 5 to 25 µg/mL (≈ 8.11 to 40.5 µM)
[4]; isolate CA3
  MIC50: 1 to 8 µg/mL (≈ 1.62 to 13 µM)
[4]; isolate SC5314
  MIC50: 1 to 8 µg/mL (≈ 1.62 to 13 µM)
[4]
  MIC50 C. albicans: ** (** means 1 μg/mL < MIC50 <= 8 μg/mL)
[5]
  S. aureus Selectivity Indices, Group: B (Group B: 3 < SI <= 5)
  MIC80: < 5 µM
[6]
  MIC99: < 5 µg/mL
[7]
  % Normalised Fluorescence with polyAU RNA: 17%
[8]
  % Normalised Fluorescence with gDNA: 8%
[9]
  MIC99: < 5 µg/mL
[10]; [23]
  MIC50: 1 to 8 µg/mL (≈ 1.62 to 13 µM)
[10]; [24]
  MIC50: 1 to 8 µg/mL (≈ 1.62 to 13 µM)
[10]; [25]
  MIC50: 8 to 32 µg/mL (≈ 13 to 51.9 µM)
[11]
  MIC50: ≤ 1 µg/mL
  MIC50 Fusarium solani: *** (*** means MIC50 <= 1 μg/mL)
[12]; [26]
  MIC50: ≤ 1 µg/mL
[12]; [27]
  MIC50: ≤ 1 µg/mL
[13]
  MIC50: 1 to 8 µg/mL (≈ 1.62 to 13 µM)
[14]
  MIC80: < 5 µM
[15]
  MIC99: < 5 µg/mL
[16]
  MIC50: ≤ 1 µg/mL
  MIC50 Fusarium oxysporum: *** (*** means MIC50 <= 1 μg/mL)
[17]
  MIC99: 5 to 25 µg/mL (≈ 8.11 to 40.5 µM)
[18]
  MIC50: ≤ 1 µg/mL
[19]; [28]
  MIC50: ≤ 1 µg/mL
[19]; [29]
  MIC50: ≤ 1 µg/mL
[19]; [30]
  MIC50: ≤ 1 µg/mL
[19]; [31]
  MIC50: ≤ 1 µg/mL
[19]; [32]
  MIC50: ≤ 1 µg/mL
[19]; [33]
  MIC50: 1 to 8 µg/mL (≈ 1.62 to 13 µM)
[19]; [34]
  MIC50: ≤ 1 µg/mL
[19]; [35]
  MIC50: ≤ 1 µg/mL
[19]; [36]
  MIC50: ≤ 1 µg/mL
[19]; [37]
  MIC50: ≤ 1 µg/mL
[19]; [38]
  MIC50: ≤ 1 µg/mL
[19]; [39]
  MIC50: ≤ 1 µg/mL
[19]; [40]
  MIC50: ≤ 1 µg/mL
[20]
  MIC80: > 100 µM
[21]; [41]
  MIC50: 1 to 8 µg/mL (≈ 1.62 to 13 µM)
[21]; [42]
  MIC50: 1 to 8 µg/mL (≈ 1.62 to 13 µM)
[21]; isolate CP2
  MIC50 C. parapsilosis: ** (** means 1 μg/mL < MIC50 <= 8 μg/mL)
[21]; isolate CP3
  MIC50 C. parapsilosis: ** (** means 1 μg/mL < MIC50 <= 8 μg/mL)
[22]; [43]
  MIC50: 1 to 8 µg/mL (≈ 1.62 to 13 µM)
[22]; [44]
  MIC50: 1 to 8 µg/mL (≈ 1.62 to 13 µM)
[22]; [45]
  MIC50: 1 to 8 µg/mL (≈ 1.62 to 13 µM)
